Measurements: the Kinase Knowledgebase extract (Sharma et al. 2016)

Target: PIK3CA (human) (UniProt P42336)
Test: Assessment of PIK3CA Kinase Activity

Chain of PIK3CA (human) (P42336 whole entry, looked up): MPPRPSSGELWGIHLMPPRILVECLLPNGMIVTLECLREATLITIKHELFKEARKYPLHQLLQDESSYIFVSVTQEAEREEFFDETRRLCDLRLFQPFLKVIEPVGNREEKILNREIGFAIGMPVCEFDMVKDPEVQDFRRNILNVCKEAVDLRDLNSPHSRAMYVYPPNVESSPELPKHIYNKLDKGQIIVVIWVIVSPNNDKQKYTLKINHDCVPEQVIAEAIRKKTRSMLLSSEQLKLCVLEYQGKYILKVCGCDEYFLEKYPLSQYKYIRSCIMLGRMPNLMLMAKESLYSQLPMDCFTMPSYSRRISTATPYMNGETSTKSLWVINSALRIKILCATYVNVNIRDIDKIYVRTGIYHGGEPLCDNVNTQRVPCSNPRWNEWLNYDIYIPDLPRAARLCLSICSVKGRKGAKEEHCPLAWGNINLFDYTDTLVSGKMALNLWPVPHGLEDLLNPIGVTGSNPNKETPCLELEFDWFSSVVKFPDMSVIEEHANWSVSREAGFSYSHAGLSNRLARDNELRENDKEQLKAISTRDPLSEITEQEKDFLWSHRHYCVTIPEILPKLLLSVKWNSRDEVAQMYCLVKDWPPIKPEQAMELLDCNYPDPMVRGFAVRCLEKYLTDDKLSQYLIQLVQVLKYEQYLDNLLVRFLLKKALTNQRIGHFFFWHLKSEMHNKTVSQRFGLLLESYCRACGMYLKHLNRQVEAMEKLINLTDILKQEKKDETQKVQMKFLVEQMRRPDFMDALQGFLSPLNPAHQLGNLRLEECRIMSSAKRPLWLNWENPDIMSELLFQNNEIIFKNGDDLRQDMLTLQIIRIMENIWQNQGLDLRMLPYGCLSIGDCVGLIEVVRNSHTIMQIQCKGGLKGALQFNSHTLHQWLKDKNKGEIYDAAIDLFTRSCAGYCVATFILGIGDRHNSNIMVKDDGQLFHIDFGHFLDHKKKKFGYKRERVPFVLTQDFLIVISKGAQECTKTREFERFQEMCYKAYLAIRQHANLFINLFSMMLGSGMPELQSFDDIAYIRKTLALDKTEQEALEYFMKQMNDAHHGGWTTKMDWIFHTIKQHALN

CN(Cc1cc2nc(-c3ccc(O)cc3)nc(N3CCOCC3)c2s1)c1ncc(C(=O)NO)cn1
IC50: 100 to 1000 nM

C#CCCN(Cc1cc2nc(-c3cccc4[nH]ncc34)nc(N3CCOCC3)c2s1)c1ncc(C(=O)NO)cn1
IC50: < 100 nM

O=C(NO)c1cnc(NCc2cc3cc(-c4cccc5[nH]ncc45)nc(N4CCOCC4)c3s2)nc1
IC50: 100 to 1000 nM

COC(=O)CN(Cc1cc2nc(-c3cccc4[nH]ncc34)nc(N3CCOCC3)c2s1)c1ncc(C(=O)NO)cn1
IC50: < 100 nM

CN(Cc1cc2nc(-c3ccc(N)cc3)nc(N3CCOCC3)c2s1)c1ncc(C(=O)NO)cn1
IC50: < 100 nM

CNc1ncc(-c2nc(N3CCOCC3)c3sc(CN(C)c4ncc(C(=O)NO)cn4)cc3n2)cn1
IC50: < 100 nM

O=C(/C=C/c1ccc(NCc2cc3nc(-c4cccc5[nH]ncc45)nc(N4CCOCC4)c3s2)cc1)NO
IC50: < 100 nM

CN(Cc1cc2nc(-c3cn[nH]c3)nc(N3CCOCC3)c2s1)c1ncc(C(=O)NO)cn1
IC50: 100 to 1000 nM

CN(Cc1cc2nc(-c3cccc4[nH]ncc34)nc(Nc3ccccc3)c2s1)c1ncc(C(=O)NO)cn1
IC50: < 100 nM

CN(Cc1cc2nc(-c3cc[nH]c3)nc(N3CCOCC3)c2s1)c1ncc(C(=O)NO)cn1
IC50: < 100 nM

CC(=O)NCCN(Cc1cc2nc(-c3cccc4[nH]ncc34)nc(N3CCOCC3)c2s1)c1ncc(C(=O)NO)cn1
IC50: < 100 nM

O=C(CCCCCCNCc1cc2nc(-c3cccc4[nH]ncc34)nc(N3CCOCC3)c2s1)NO
IC50: < 100 nM

CN(CCCCC(=O)NO)Cc1cc2nc(-c3cccc4[nH]ncc34)nc(N3CCOCC3)c2s1
IC50: 100 to 1000 nM

CN(Cc1cc2nc(-c3cccc4[nH]ccc34)nc(N3CCOCC3)c2s1)c1ncc(C(=O)NO)cn1
IC50: 100 to 1000 nM

CN(CCCCCC(=O)NO)Cc1cc2nc(-c3cccc4[nH]ncc34)nc(N3CCOCC3)c2s1
IC50: 100 to 1000 nM

NC(=O)CN(Cc1cc2nc(-c3cccc4[nH]ncc34)nc(N3CCOCC3)c2s1)c1ncc(C(=O)NO)cn1
IC50: < 100 nM

CN(Cc1cc2nc(-c3cccc4[nH]ncc34)nc(N3CCOCC3)c2s1)c1ccc(C(=O)NO)cc1
IC50: < 100 nM

CN(CCCCCCC(=O)NO)Cc1cc2nc(-c3cccc4[nH]ncc34)nc(N3CCOCC3)c2s1
IC50: < 100 nM

O=C(NO)c1ccc(NCc2cc3nc(-c4cccc5[nH]ncc45)nc(N4CCOCC4)c3s2)nc1
IC50: < 100 nM

CN(Cc1cc2nc(-c3ccc(C(F)(F)F)cc3)nc(N3CCOCC3)c2s1)c1ncc(C(=O)NO)cn1
IC50: 100 to 1000 nM

CCc1ncc(-c2nc(N3CCOCC3)c3sc(CN(C)c4ncc(C(=O)NO)cn4)cc3n2)cn1
IC50: < 100 nM

CC(C)(Nc1ncc(C(=O)NO)cn1)c1cc2nc(-c3cccc4[nH]ncc34)nc(N3CCOCC3)c2s1
IC50: 100 to 1000 nM

CN(Cc1cc2nc(-c3ccc(CN)cc3)nc(N3CCOCC3)c2s1)c1ncc(C(=O)NO)cn1
IC50: 100 to 1000 nM

O=C(NO)c1cnc(N2CCC(CNc3cc4nc(-c5cccc6[nH]ncc56)nc(N5CCOCC5)c4s3)CC2)nc1
IC50: < 100 nM

O=C(O)CN(Cc1cc2nc(-c3cccc4[nH]ncc34)nc(N3CCOCC3)c2s1)c1ncc(C(=O)NO)cn1
IC50: < 100 nM

CN(Cc1cc2nc(-c3cncnc3)nc(N3CCOCC3)c2s1)c1ncc(C(=O)NO)cn1
IC50: < 100 nM

COc1cccc(-c2nc(N3CCOCC3)c3sc(CN(C)c4ncc(C(=O)NO)cn4)cc3n2)c1
IC50: 100 to 1000 nM

O=C(CCCCCNc1cc2nc(-c3cccc4[nH]ncc34)nc(N3CCOCC3)c2s1)NO
IC50: 100 to 1000 nM

CC(=O)Nc1ccc(-c2nc(N3CCOCC3)c3sc(CN(C)c4ncc(C(=O)NO)cn4)cc3n2)cc1
IC50: < 100 nM

CN(Cc1cc2nc(-c3ccc(CO)cc3)nc(N3CCOCC3)c2s1)c1ncc(C(=O)NO)cn1
IC50: 100 to 1000 nM

CN(Cc1cc2nc(-c3ccc(C(N)=O)cc3)nc(N3CCOCC3)c2s1)c1ncc(C(=O)NO)cn1
IC50: 100 to 1000 nM

CN(Cc1cc2nc(-c3cccc(O)c3)nc(N3CCOCC3)c2s1)c1ncc(C(=O)NO)cn1
IC50: < 100 nM

Cc1ncc(-c2nc(N3CCOCC3)c3sc(CN(C)c4ncc(C(=O)NO)cn4)cc3n2)cn1
IC50: < 100 nM

O=C(NO)c1cnc(N2CCN(S(=O)(=O)c3cc4nc(-c5cccc6[nH]ncc56)nc(N5CCOCC5)c4s3)CC2)nc1
IC50: < 100 nM

COCCN(CCOC)c1nc(-c2cccc3[nH]ncc23)nc2cc(CN(C)c3ncc(C(=O)NO)cn3)sc12
IC50: 100 to 1000 nM

CC1COCC(C)N1c1nc(-c2cccc3[nH]ncc23)nc2cc(CN(C)c3ncc(C(=O)NO)cn3)sc12 (stereo unspecified)
IC50: 100 to 1000 nM

CN(Cc1cc2nc(-c3cccc4[nH]ncc34)nc(NCCO)c2s1)c1ncc(C(=O)NO)cn1
IC50: 100 to 1000 nM

COc1ccccc1Nc1nc(-c2cccc3[nH]ncc23)nc2cc(CN(C)c3ncc(C(=O)NO)cn3)sc12
IC50: 100 to 1000 nM

Cc1c(CN(C)c2ncc(C(=O)NO)cn2)sc2c(N3CCOCC3)nc(-c3cccc4[nH]ncc34)nc12
IC50: 100 to 1000 nM

CN(Cc1cc2nc(-c3ccc(N)c(N)c3)nc(N3CCOCC3)c2s1)c1ncc(C(=O)NO)cn1
IC50: 100 to 1000 nM

O=C(NO)c1ccc(CNCc2cc3nc(-c4cccc5[nH]ncc45)nc(N4CCOCC4)c3s2)cc1
IC50: 100 to 1000 nM

Nc1ccc(-c2nc(N3CCOCC3)c3sc(CNc4ncc(C(=O)NO)cn4)cc3n2)cc1
IC50: 100 to 1000 nM

CN(Cc1cc2nc(-c3cccc4[nH]ncc34)nc(N3CCCCC3)c2s1)c1ncc(C(=O)NO)cn1
IC50: 100 to 1000 nM

CN(Cc1cc2nc(-c3cccc(N)c3)nc(N3CCOCC3)c2s1)c1ncc(C(=O)NO)cn1
IC50: 100 to 1000 nM

CN(C)c1ccc(-c2nc(N3CCOCC3)c3sc(CN(C)c4ncc(C(=O)NO)cn4)cc3n2)cn1
IC50: 100 to 1000 nM

CN(C)c1ncc(-c2nc(N3CCOCC3)c3sc(CN(C)c4ncc(C(=O)NO)cn4)cc3n2)cn1
IC50: < 100 nM

Cc1nc2ccc(-c3nc(N4CCOCC4)c4sc(CN(C)c5ncc(C(=O)NO)cn5)cc4n3)cc2[nH]1
IC50: < 100 nM

CN(Cc1cc2nc(-c3cnc(C(N)=O)nc3)nc(N3CCOCC3)c2s1)c1ncc(C(=O)NO)cn1
IC50: < 100 nM

O=C(NO)c1cnc(N2CCC(CNCc3cc4nc(-c5cccc6[nH]ncc56)nc(N5CCOCC5)c4s3)CC2)nc1
IC50: 100 to 1000 nM

O=C(C=Cc1ccc(CNCc2cc3nc(-c4cccc5[nH]ncc45)nc(N4CCOCC4)c3s2)cc1)NO
IC50: 100 to 1000 nM

CN(Cc1cc2nc(-c3cccc4[nH]ncc34)nc(N3CCOCC3)c2s1)CC1CCN(c2ncc(C(=O)NO)cn2)CC1
IC50: < 100 nM

CCCN(Cc1cc2nc(-c3cccc4[nH]ncc34)nc(N3CCOCC3)c2s1)c1ncc(C(=O)NO)cn1
IC50: < 100 nM

CN(Cc1cc2nc(-c3cccc4[nH]ncc34)nc(N3CCOCC3)c2s1)c1ncc(C=CC(=O)NO)cn1
IC50: < 100 nM

CN(Cc1cc2nc(-c3ccc4[nH]cnc4c3)nc(N3CCOCC3)c2s1)c1ncc(C(=O)NO)cn1
IC50: < 100 nM

O=C(NO)c1cc2nc(-c3cccc4[nH]ncc34)nc(N3CCOCC3)c2s1
IC50: < 100 nM

CN(Cc1cc2cc(-c3cccc4[nH]ncc34)nc(N3CCOCC3)c2s1)c1ncc(C(=O)NO)cn1
IC50: 100 to 1000 nM

CN(Cc1cc2nc(-c3cccnc3)nc(N3CCOCC3)c2s1)c1ncc(C(=O)NO)cn1
IC50: < 100 nM

CS(=O)(=O)N1CCN(Cc2cc3nc(-c4cccc5nn(CCCCC(=O)NO)cc45)nc(N4CCOCC4)c3s2)CC1
IC50: 100 to 1000 nM

CN(Cc1cc2nc(-c3ccccc3CO)nc(N3CCOCC3)c2s1)c1ncc(C(=O)NO)cn1
IC50: 100 to 1000 nM

O=C(CCCCNc1cc2nc(-c3cccc4[nH]ncc34)nc(N3CCOCC3)c2s1)NO
IC50: 100 to 1000 nM

CN(CC1CCN(c2ncc(C(=O)NO)cn2)CC1)c1cc2nc(-c3cccc4[nH]ncc34)nc(N3CCOCC3)c2s1
IC50: < 100 nM
